In brackets after ≈: the same amount, converted by molar mass. Activity calls are given as the source filed them. The rule behind the calls is not given here.
Assays:
[1] = Aqueous equilibrium solubility of compound in simulated intestinal fluid at pH 6.8; type: physicochemical
[2] = molecular target: T1, Transient receptor potential cation channel subfamily V member 1 (Homo sapiens, UniProt Q8NER1); experiment: Antagonist activity at human TRPV1 expressed in HEK293 cells assessed as inhibition of capsaicin-induced intracellular Ca2+ level by FLIPR assay; type: functional, cell-based
[3] = molecular target: T2, Transient receptor potential cation channel subfamily V member 1 (Rattus norvegicus, UniProt O35433); experiment: Antagonist activity at rat TRPV1 expressed in HEK293 cells assessed as inhibition of capsaicin-induced intracellular Ca2+ level by FLIPR assay; type: functional, cell-based
[4] = Aqueous equilibrium solubility of compound in phosphate buffer at pH 2; type: physicochemical
[5] = Clearance in rat; type: ADME, organism-based; details: in vivo
[6] = Volume of distribution at steady state in fasted Sprague-Dawley rat at 0.5 mg/kg, iv and 2 mg/kg, po; type: ADME, organism-based; details: in vivo, read-out: Vdss
[7] = Clearance in fasted Sprague-Dawley rat at 0.5 mg/kg, iv and 2 mg/kg, po; type: ADME, organism-based; details: in vivo
[8] = Half life in fasted Sprague-Dawley rat at 0.5 mg/kg, iv and 2 mg/kg, po; type: ADME, organism-based; details: in vivo
[9] = Cmax in fasted Sprague-Dawley rat at 2 mg/kg, po; type: ADME, organism-based; set-up: dose 2 mg/kg, route oral; details: in vivo
[10] = Terminal plasma concentration in rat at 5 mg/kg, po administered 5 hrs post-carrageenan challenge; type: ADME, organism-based; set-up: dose 5 mg/kg, route oral; details: read-out: Cp(T)
Rattus norvegicus [11] = experiment: Analgesic activity against carrageenan-induced thermal hyperalgesia in rat assessed as maximal possible effect at 30 mg/kg, po administered 3 hrs post-carrageenan challenge; type: functional
[12] = molecular target: T2, Transient receptor potential cation channel subfamily V member 1; experiment: Inhibition of rat TRPV1 expressed in HEK cells; type: cell-based, HEK293
[13] = Terminal plasma concentration in rat at 30 mg/kg, po administered 5 hrs post-carrageenan challenge; type: ADME, organism-based; set-up: dose 30 mg/kg, route oral; details: read-out: Cp(T)
[14] = Oral bioavailability in fasted Sprague-Dawley rat at 2 mg/kg; type: ADME, organism-based; details: in vivo
[15] = molecular target: T1, Transient receptor potential cation channel subfamily V member 1; experiment: Inhibition of human TRPV1 expressed in HEK cells; type: cell-based, HEK293
[16] = molecular target: T2, Transient receptor potential cation channel subfamily V member 1; experiment: Displacement of [3H]RTX from rat TRPV1 expressed in HEK cells; type: cell-based, HEK293
Rattus norvegicus [17] = experiment: Analgesic activity against carrageenan-induced thermal hyperalgesia in rat at 5 mg/kg, po administered 1 hr before carrageenan challenge; type: functional, organism-based; set-up: dose 5 mg/kg
[18] = AUC (infinity) in fasted Sprague-Dawley rat at 2 mg/kg, po; type: ADME, organism-based; set-up: time infinity, dose 2 mg/kg, route oral; details: plasma
[19] = Tmax in fasted Sprague-Dawley rat at 2 mg/kg, po; type: ADME, organism-based; set-up: dose 2 mg/kg, route oral; details: in vivo

T2 sequence (O35433 whole entry): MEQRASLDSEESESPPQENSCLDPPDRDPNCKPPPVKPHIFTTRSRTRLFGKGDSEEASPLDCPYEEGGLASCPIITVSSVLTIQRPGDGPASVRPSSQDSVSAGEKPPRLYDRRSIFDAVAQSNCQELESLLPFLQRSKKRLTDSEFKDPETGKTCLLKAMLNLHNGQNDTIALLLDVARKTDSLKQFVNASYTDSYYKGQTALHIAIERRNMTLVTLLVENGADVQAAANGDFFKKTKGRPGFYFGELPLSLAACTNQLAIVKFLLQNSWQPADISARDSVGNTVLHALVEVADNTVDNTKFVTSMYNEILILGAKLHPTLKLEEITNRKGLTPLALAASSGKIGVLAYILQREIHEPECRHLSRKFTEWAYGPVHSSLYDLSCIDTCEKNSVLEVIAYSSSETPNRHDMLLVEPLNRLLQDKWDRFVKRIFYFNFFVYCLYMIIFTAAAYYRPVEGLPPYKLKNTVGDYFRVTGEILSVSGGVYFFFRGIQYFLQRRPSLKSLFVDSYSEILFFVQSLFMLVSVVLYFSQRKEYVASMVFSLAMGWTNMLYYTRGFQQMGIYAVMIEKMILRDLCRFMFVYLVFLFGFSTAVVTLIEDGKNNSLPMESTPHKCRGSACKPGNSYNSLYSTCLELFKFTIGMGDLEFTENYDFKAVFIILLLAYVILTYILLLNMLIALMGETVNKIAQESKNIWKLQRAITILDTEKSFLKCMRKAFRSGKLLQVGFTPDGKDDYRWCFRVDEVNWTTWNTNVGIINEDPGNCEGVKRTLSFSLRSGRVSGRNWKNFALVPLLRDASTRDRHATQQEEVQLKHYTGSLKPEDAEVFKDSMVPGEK
T1 sequence (Q8NER1 whole entry): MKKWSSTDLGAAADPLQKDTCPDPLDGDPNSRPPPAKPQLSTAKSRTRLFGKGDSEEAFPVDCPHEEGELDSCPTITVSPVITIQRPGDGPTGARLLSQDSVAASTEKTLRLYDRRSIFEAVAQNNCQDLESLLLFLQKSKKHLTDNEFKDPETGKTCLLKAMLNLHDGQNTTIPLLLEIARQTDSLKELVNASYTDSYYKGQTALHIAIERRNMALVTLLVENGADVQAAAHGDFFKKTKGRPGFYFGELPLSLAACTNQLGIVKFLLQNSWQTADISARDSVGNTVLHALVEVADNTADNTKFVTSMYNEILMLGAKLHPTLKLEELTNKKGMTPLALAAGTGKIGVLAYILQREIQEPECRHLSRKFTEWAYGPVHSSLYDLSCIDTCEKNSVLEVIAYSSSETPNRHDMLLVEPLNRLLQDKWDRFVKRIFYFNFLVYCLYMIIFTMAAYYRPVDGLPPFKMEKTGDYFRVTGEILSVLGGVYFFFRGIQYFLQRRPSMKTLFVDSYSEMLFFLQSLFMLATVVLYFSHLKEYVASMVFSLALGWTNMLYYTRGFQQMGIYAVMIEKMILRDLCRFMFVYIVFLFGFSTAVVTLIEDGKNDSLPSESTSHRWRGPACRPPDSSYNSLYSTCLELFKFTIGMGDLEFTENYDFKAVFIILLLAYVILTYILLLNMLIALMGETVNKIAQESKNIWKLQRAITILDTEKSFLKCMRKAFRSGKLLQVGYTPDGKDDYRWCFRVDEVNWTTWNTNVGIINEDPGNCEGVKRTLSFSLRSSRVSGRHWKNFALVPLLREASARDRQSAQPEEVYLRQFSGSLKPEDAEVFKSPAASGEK

Compound | solubility thermodynamic [1] | IC50 [2] | IC50 [3] | solubility thermodynamic [4] | other results
CN(C)CCN(C)c1nc2c(c(Nc3ccc(C(F)(F)F)cc3)n1)CCN(c1ncccc1C(F)(F)F)CC2 | 210 µg/mL (≈ 379 µM) | 2670 nM | 4450 nM | > 221 µg/mL | 
FC(F)(F)c1ccc(Nc2nc(N3CCN(C4CCCC4)CC3)nc3c2CCN(c2ncccc2C(F)(F)F)CC3)cc1 | 11 µg/mL (≈ 18.2 µM) | 15 nM | 123 nM | 221 µg/mL (≈ 365 µM) | 
CN(C)CCN1CCN(c2nc3c(c(Nc4ccc(C(F)(F)F)cc4)n2)CCN(c2ncccc2C(F)(F)F)CC3)CC1 | > 243 µg/mL | 2000 nM | 2600 nM | > 243 µg/mL | 
CC(=O)NC1CCN(c2nc3c(c(Nc4ccc(C(F)(F)F)cc4)n2)CCN(c2ncccc2C(F)(F)F)CC3)C1 (stereo not drawn) | 19 µg/mL (≈ 32.8 µM) | 150 nM | 410 nM | 202 µg/mL (≈ 349 µM) | 
CC(C)(C)OC(=O)N1CCCCC1CNc1nc2c(c(Nc3ccc(C(F)(F)F)cc3)n1)CCN(c1ncccc1C(F)(F)F)CC2 (stereo not drawn) | 3 µg/mL (≈ 4.51 µM) | 250 nM | 230 nM | 3 µg/mL (≈ 4.51 µM) | 
FC(F)(F)c1ccc(Nc2nc(N3CCOCC3)nc3c2CCN(c2ncccc2C(F)(F)F)CC3)cc1 |  |  |  |  | clearance [5]: 51.7 mL/min/kg
FC(F)(F)c1ccc(Nc2nc(N3CCNCC3)nc3c2CCN(c2ncccc2C(F)(F)F)CC3)cc1 | 158 µg/mL (≈ 294 µM) |  | > 5000 nM | 215 µg/mL (≈ 400 µM) | 
OCCN1CCN(c2nc3c(c(Nc4ccc(C(F)(F)F)cc4)n2)CCN(c2ncccc2C(F)(F)F)CC3)CC1 | 4 µg/mL (≈ 6.88 µM) | 498 nM | 1160 nM | > 233 µg/mL | 
CN(c1nc2c(c(Nc3ccc(C(F)(F)F)cc3)n1)CCN(c1ncccc1C(F)(F)F)CC2)C1CCCNC1 (stereo not drawn) | 211 µg/mL (≈ 373 µM) | 3600 nM | 1540 nM | > 241 µg/mL | 
CC(=O)N(C)C1CCN(c2nc3c(c(Nc4ccc(C(F)(F)F)cc4)n2)CCN(c2ncccc2C(F)(F)F)CC3)C1 (stereo not drawn) | 2 µg/mL (≈ 3.37 µM) | 62 nM | 460 nM | 21 µg/mL (≈ 35.4 µM) | 
CC(C)N1CCN(c2nc3c(c(Nc4ccc(C(F)(F)F)cc4)n2)CCN(c2ncccc2C(F)(F)F)CC3)CC1 | 2 µg/mL (≈ 3.45 µM) |  | 386 nM | > 232 µg/mL | Vd [6]: 5.1 L/kg; clearance [7]: 80 mL/min/kg; half-life [8]: 1.5 h
FC(F)(F)c1ccc(Nc2nc(N3CCN(C4CC4)CC3)nc3c2CCN(c2ncccc2C(F)(F)F)CC3)cc1 | 9 µg/mL (≈ 15.6 µM) | 11 nM | 45 nM | 230 µg/mL (≈ 398 µM) | Vd [6]: 1 L/kg; clearance [7]: 21.7 mL/min/kg; half-life [8]: 1.6 h
CN1CCCC(Nc2nc3c(c(Nc4ccc(C(F)(F)F)cc4)n2)CCN(c2ncccc2C(F)(F)F)CC3)C1 (stereo not drawn) | 226 µg/mL (≈ 400 µM) | 3080 nM | > 5000 nM | 204 µg/mL (≈ 361 µM) | 
FC(F)(F)c1ccc(Nc2nc(N3CCN(C4CCC4)CC3)nc3c2CCN(c2ncccc2C(F)(F)F)CC3)cc1 | 2 µg/mL (≈ 3.38 µM) | 24 nM | 161 nM | > 237 µg/mL | 
CN1CCCC(N(C)c2nc3c(c(Nc4ccc(C(F)(F)F)cc4)n2)CCN(c2ncccc2C(F)(F)F)CC3)C1 (stereo not drawn) | > 232 µg/mL | > 5000 nM | > 5000 nM | > 232 µg/mL | 
FC(F)(F)c1ccc(Nc2nc(NCC3CCCCN3)nc3c2CCN(c2ncccc2C(F)(F)F)CC3)cc1 (stereo not drawn) | 237 µg/mL (≈ 419 µM) | 100 nM | > 5000 nM | > 272 µg/mL | 

Compound | solubility thermodynamic [1] | IC50 [2] | IC50 [3] | solubility thermodynamic [4] | other results
CCN1CCN(c2nc3c(c(Nc4ccc(C(F)(F)F)cc4)n2)CCN(c2ncccc2C(F)(F)F)CC3)CC1 | 6 µg/mL (≈ 10.6 µM) | 132 nM | 506 nM | > 226 µg/mL | 
FC(F)(F)c1ccc(Nc2nc(NCc3ccccn3)nc3c2CCN(c2ncccc2C(F)(F)F)CC3)cc1 | 1 µg/mL (≈ 1.79 µM) | 476 nM | 1340 nM | 224 µg/mL (≈ 400 µM) | 
CN1CCCCC1CNc1nc2c(c(Nc3ccc(C(F)(F)F)cc3)n1)CCN(c1ncccc1C(F)(F)F)CC2 (stereo not drawn) | 254 µg/mL (≈ 438 µM) | 1760 nM | 2280 nM | > 277 µg/mL | 
CCC(CC)N1CCN(c2nc3c(c(Nc4ccc(C(F)(F)F)cc4)n2)CCN(c2ncccc2C(F)(F)F)CC3)CC1 | 109 µg/mL (≈ 179 µM) | 41 nM | 185 nM | 243 µg/mL (≈ 400 µM) | 
NC1CCN(c2nc3c(c(Nc4ccc(C(F)(F)F)cc4)n2)CCN(c2ncccc2C(F)(F)F)CC3)C1 (stereo not drawn) | > 215 µg/mL | 3700 nM | > 5000 nM | > 215 µg/mL | 
CN(C)[C@H]1CCN(c2nc3c(c(Nc4ccc(C(F)(F)F)cc4)n2)CCN(c2ncccc2C(F)(F)F)CC3)C1 | 57 µg/mL (≈ 101 µM) | 185 nM | 586 nM | > 226 µg/mL | 
CC(C)(C)OC(=O)N1CCCC(Nc2nc3c(c(Nc4ccc(C(F)(F)F)cc4)n2)CCN(c2ncccc2C(F)(F)F)CC3)C1 (stereo not drawn) | 14 µg/mL (≈ 21.5 µM) | 140 nM | 239 nM | 1 µg/mL (≈ 1.53 µM) | 
FC(F)(F)c1ccc(Nc2nc(NC3CCCNC3)nc3c2CCN(c2ncccc2C(F)(F)F)CC3)cc1 (stereo not drawn) | 203 µg/mL (≈ 368 µM) | > 5000 nM | > 5000 nM | > 235 µg/mL | 
CN(C)[C@@H]1CCN(c2nc3c(c(Nc4ccc(C(F)(F)F)cc4)n2)CCN(c2ncccc2C(F)(F)F)CC3)C1 | 57 µg/mL (≈ 101 µM) | 243 nM | 1040 nM | > 226 µg/mL | 
CC(C)CN1CCN(c2nc3c(c(Nc4ccc(C(F)(F)F)cc4)n2)CCN(c2ncccc2C(F)(F)F)CC3)CC1 | 11 µg/mL (≈ 18.5 µM) | 11 nM | 89 nM | > 237 µg/mL | Cmax [9]: 300 nM; Vd [6]: 0.5 L/kg; concentration at 5 h [10]: 277 nM; Activity (Rattus norvegicus [11]): 100%; IC50 [12]: 63 nM; concentration at 5 h [13]: 1050 nM; bioavailability [14]: 21%; IC50 [15]: 67 nM; clearance [7]: 11.7 mL/min/kg; IC50 [16]: 330 nM; Activity (Rattus norvegicus [17]): Active; half-life [8]: 1.8 h; AUC(0-inf) [18]: 598 ng·h/mL; Tmax [19]: 2.3 h
CN1CCN(c2nc3c(c(Nc4ccc(C(F)(F)F)cc4)n2)CCN(c2ncccc2C(F)(F)F)CC3)CC1 | 193 µg/mL (≈ 350 µM) |  | 506 nM | > 221 µg/mL | 
CNC1CCN(c2nc3c(c(Nc4ccc(C(F)(F)F)cc4)n2)CCN(c2ncccc2C(F)(F)F)CC3)C1 (stereo not drawn) | 233 µg/mL (≈ 422 µM) | 2790 nM | > 5000 nM | > 220 µg/mL | 
CN(CC1CCCCN1C)c1nc2c(c(Nc3ccc(C(F)(F)F)cc3)n1)CCN(c1ncccc1C(F)(F)F)CC2 (stereo not drawn) | > 283 µg/mL | 3330 nM | > 5000 nM | > 283 µg/mL | 
COCCN1CCN(c2nc3c(c(Nc4ccc(C(F)(F)F)cc4)n2)CCN(c2ncccc2C(F)(F)F)CC3)CC1 | 6 µg/mL (≈ 10.1 µM) | 65 nM | 207 nM | > 238 µg/mL | 
CN(c1nc2c(c(Nc3ccc(C(F)(F)F)cc3)n1)CCN(c1ncccc1C(F)(F)F)CC2)C1CCCN(C(=O)OC(C)(C)C)C1 (stereo not drawn) | 4 µg/mL (≈ 6.01 µM) | 53 nM | 97 nM | 1 µg/mL (≈ 1.5 µM) | 

From ChEMBL document CHEMBL1629484, “1,2-diamino-ethane-substituted-6,7,8,9-tetrahydro-5H-pyrimido[4,5-d]azepines as TRPV1 antagonists with improved properties” (Bioorg Med Chem Lett, 2010)
